The source made the active and inactive calls.

The target of test [1] is Dual specificity mitogen-activated protein kinase kinase 2 (Homo sapiens, UniProt P36507).
In test [2] the target is T1, Dual specificity mitogen-activated protein kinase kinase 3 (Homo sapiens, UniProt P46734).
T1 sequence (P46734 whole entry): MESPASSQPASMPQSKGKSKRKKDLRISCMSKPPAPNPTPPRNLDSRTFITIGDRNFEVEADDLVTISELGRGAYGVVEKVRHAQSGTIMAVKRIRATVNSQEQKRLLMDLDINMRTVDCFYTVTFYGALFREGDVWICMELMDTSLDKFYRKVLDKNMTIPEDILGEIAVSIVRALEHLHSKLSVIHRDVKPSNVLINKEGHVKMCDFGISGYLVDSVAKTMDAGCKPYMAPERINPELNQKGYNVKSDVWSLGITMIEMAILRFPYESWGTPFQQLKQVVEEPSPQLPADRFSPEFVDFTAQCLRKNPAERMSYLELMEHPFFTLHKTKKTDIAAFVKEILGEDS

The target of test [3] is T2, Bone morphogenetic protein receptor type-2 (Homo sapiens, UniProt Q13873).
T2 sequence (Q13873 whole entry): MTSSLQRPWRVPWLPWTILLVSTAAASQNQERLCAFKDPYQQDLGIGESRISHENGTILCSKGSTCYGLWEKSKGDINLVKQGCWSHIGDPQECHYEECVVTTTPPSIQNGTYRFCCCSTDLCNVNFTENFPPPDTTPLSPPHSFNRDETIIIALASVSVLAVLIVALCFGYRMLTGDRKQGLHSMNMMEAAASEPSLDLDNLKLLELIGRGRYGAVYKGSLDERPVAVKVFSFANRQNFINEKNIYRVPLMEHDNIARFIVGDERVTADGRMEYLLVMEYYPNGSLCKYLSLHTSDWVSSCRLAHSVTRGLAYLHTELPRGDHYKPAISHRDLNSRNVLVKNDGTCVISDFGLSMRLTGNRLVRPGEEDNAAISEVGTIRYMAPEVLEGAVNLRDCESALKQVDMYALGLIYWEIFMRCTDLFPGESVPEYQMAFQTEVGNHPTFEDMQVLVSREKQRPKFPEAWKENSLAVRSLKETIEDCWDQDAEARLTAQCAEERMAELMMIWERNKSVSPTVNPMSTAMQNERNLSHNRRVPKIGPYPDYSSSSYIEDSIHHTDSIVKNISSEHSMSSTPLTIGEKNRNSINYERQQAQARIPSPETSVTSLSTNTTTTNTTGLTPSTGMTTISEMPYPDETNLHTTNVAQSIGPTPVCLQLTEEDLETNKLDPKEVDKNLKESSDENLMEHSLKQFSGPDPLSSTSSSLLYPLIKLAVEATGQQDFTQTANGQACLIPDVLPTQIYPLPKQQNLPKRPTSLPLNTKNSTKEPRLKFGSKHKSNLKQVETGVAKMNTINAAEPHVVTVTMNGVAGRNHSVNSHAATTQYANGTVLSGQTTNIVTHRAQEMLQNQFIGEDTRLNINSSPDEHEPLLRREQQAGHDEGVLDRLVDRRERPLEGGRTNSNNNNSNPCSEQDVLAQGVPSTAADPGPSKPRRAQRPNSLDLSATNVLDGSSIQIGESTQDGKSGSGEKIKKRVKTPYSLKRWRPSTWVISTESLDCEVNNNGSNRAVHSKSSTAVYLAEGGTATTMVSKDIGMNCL

In test [4] the target is T3, Uncharacterized protein FLJ45252 (Homo sapiens, UniProt Q6ZSR9).
T3 sequence (Q6ZSR9 whole entry): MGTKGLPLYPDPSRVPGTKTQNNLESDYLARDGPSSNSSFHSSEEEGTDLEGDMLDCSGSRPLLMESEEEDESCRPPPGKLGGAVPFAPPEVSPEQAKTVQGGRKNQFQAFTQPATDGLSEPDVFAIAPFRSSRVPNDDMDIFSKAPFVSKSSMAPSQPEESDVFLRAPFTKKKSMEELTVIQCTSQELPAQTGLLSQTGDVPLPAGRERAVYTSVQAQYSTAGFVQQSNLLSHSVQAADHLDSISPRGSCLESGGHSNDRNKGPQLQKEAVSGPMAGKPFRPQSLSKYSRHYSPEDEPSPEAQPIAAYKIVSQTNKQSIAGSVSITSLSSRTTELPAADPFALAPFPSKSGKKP
The conditions noted are these: read-out: Kd apparent; k-562, colo 205, sk-n-be(2) and mv-4-11.

The target in test [5] is AP2-associated protein kinase 1 (Homo sapiens, UniProt Q2M2I8).
Test [6] has as its target Guanine nucleotide-binding protein G(i) subunit alpha-2 (Homo sapiens, UniProt P04899).
In another test the target is Activin receptor type-2B (Homo sapiens, UniProt Q13705).
Another test addresses DNA topoisomerase 2-beta (Homo sapiens, UniProt Q02880).
Test [7] concerns the target NADH dehydrogenase [ubiquinone] 1 alpha subcomplex subunit 13 (Homo sapiens, UniProt Q9P0J0).
Further: in the data inactive means no Kd found up to 30 µM.

Chain of DNA topoisomerase 2-beta (Q02880 whole entry): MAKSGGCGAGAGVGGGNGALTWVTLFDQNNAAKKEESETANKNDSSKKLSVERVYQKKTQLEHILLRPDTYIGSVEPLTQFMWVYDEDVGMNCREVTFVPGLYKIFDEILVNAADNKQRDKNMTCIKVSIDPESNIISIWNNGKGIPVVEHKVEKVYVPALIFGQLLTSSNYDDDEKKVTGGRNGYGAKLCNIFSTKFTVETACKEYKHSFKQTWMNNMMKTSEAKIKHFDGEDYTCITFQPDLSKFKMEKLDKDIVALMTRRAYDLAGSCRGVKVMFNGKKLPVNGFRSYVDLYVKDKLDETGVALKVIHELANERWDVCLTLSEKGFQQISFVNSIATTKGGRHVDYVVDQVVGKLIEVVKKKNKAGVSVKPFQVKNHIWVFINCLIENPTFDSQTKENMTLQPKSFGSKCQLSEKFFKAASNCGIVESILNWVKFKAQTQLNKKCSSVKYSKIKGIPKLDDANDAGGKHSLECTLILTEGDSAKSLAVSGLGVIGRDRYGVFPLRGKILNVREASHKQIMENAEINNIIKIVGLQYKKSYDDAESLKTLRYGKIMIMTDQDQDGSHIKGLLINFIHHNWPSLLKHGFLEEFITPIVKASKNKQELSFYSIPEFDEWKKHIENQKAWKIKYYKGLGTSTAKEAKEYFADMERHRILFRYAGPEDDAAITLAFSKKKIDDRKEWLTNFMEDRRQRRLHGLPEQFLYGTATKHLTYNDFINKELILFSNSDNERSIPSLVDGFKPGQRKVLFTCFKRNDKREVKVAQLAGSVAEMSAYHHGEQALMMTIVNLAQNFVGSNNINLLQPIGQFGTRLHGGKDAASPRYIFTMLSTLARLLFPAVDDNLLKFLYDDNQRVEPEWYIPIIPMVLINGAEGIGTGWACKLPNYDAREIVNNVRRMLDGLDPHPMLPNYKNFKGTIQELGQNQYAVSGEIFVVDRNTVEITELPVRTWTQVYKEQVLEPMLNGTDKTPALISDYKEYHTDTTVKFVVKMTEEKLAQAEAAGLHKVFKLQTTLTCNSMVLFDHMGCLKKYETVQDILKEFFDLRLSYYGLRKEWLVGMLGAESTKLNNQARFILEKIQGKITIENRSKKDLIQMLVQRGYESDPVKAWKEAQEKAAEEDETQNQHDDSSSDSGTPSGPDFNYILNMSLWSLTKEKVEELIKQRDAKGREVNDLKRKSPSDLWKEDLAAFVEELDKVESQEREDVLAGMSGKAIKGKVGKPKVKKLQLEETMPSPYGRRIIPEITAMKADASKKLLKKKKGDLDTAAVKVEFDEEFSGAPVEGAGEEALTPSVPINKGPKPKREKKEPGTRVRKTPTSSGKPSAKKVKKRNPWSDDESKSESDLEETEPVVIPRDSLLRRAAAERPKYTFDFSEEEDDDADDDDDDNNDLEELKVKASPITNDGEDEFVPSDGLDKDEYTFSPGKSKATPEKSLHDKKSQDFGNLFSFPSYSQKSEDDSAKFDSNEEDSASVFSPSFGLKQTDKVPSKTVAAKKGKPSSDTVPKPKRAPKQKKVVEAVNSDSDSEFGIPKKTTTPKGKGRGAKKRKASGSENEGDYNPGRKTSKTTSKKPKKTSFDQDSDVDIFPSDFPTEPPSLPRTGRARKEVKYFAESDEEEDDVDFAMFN
Chain of Dual specificity mitogen-activated protein kinase kinase 2 (P36507 whole entry): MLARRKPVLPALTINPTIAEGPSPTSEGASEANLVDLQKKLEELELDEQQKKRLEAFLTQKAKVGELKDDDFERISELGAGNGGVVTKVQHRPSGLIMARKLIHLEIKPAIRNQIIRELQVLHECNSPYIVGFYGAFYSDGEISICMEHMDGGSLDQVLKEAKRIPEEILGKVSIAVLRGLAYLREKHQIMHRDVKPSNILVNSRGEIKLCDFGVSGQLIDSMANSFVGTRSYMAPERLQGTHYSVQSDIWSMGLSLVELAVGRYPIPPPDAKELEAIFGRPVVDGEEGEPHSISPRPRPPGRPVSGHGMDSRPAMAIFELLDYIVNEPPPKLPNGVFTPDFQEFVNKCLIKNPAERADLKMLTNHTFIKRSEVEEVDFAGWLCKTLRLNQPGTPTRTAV
Chain of AP2-associated protein kinase 1 (Q2M2I8 whole entry): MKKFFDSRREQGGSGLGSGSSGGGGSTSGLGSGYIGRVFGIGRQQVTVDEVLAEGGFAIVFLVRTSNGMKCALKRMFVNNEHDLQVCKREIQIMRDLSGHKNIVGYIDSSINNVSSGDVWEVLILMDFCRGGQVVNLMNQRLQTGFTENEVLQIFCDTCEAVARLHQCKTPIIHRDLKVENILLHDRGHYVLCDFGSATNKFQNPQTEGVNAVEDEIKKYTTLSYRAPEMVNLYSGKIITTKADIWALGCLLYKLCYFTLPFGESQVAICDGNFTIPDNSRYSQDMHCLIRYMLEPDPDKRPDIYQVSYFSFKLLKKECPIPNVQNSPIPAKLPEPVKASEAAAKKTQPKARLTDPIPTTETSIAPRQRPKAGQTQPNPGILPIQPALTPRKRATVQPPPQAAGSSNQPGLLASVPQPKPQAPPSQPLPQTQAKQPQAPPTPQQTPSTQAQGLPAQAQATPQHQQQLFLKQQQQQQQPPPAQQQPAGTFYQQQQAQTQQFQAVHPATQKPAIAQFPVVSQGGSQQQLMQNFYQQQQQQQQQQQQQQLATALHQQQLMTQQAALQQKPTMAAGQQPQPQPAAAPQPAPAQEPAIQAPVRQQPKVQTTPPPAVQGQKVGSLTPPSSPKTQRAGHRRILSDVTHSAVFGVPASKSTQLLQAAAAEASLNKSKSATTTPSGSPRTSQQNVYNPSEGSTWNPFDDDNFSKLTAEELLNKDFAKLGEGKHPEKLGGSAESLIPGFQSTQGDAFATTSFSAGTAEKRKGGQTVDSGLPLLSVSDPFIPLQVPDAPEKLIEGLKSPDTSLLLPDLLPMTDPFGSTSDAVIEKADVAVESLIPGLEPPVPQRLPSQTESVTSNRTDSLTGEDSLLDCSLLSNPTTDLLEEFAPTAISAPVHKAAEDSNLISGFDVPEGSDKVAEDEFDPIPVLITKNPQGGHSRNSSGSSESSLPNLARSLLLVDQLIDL
Chain of Guanine nucleotide-binding protein G(i) subunit alpha-2 (P04899 whole entry): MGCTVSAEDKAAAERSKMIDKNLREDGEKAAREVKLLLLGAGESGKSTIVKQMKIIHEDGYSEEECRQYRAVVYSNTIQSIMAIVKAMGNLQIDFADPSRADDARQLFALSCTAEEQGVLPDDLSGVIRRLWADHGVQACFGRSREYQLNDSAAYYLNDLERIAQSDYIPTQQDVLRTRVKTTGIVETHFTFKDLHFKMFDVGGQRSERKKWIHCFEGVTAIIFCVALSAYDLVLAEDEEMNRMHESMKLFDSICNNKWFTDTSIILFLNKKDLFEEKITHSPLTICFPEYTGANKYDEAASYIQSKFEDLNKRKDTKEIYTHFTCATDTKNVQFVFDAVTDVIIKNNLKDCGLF
Chain of NADH dehydrogenase [ubiquinone] 1 alpha subcomplex subunit 13 (Q9P0J0 whole entry, one chain of several): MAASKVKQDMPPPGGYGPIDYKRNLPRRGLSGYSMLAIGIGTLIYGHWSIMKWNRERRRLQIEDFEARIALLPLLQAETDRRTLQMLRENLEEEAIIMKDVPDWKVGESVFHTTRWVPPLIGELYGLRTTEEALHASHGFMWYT
Chain of Activin receptor type-2B (Q13705 whole entry): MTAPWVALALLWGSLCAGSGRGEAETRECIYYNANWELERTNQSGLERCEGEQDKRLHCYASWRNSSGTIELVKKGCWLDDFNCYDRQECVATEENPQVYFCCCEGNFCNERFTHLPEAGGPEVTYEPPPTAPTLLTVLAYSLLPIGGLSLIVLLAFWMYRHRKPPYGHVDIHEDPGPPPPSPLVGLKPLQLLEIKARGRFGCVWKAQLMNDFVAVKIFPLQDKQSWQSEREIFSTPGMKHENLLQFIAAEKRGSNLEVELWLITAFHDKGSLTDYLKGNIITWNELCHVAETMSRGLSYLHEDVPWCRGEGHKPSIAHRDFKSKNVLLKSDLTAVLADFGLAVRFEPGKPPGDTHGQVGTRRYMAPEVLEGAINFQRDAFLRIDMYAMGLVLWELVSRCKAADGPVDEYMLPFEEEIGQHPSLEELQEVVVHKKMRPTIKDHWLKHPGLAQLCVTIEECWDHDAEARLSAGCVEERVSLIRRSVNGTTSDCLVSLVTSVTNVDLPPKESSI

As to `CNC(=O)c1cccc(-c2ccc3c(N4CCOC[C@@H]4C)nc(N4CCOC[C@@H]4C)nc3n2)c1` [VISTUSERTIB], the Kd in test [1], in test [2], in test [3], in test [4], in test [5] and in [6] was > 30 µM (inactive) throughout. For the same compound, the Kd (at Activin receptor type-2B; at DNA topoisomerase 2-beta; in test [7]) was > 30 µM (inactive) in each case.
Consider `COc1cc2nccc(Oc3ccc(NC(=O)C4(C(=O)Nc5ccc(F)cc5)CC4)cc3)c2cc1OC` [CABOZANTINIB], for which the Kd in test [1], in test [2], in [3], in test [4], in test [5] and in [6] was > 30 µM (inactive) in each case. Besides, the Kd (on Activin receptor type-2B; at DNA topoisomerase 2-beta; in test [7]) was > 30 µM (inactive) in each case.
As to `Cc1cc(Nc2nc(N[C@@H](C)c3ncc(F)cn3)ncc2Cl)n[nH]1` [AZD-1480], the Kd in test [1], in [2], in test [3], in test [4], in test [5] and in [6] was > 30 µM (inactive) each time. In addition, the Kd (on Activin receptor type-2B; on DNA topoisomerase 2-beta; in test [7]) was > 30 µM (inactive) in each case.
Take `O=C(Nc1ccc(OC(F)(F)F)cc1)c1sccc1NCc1ccnc2ccccc12` [OSI-930]: the Kd in test [1], in [2], in test [3], in test [4], in test [5] and in [6] was > 30 µM (inactive) each time. The Kd (on Activin receptor type-2B; on DNA topoisomerase 2-beta; in [7]) was > 30 µM (inactive) throughout.
Regarding `C=CCN(/C=C1/C(=O)O[C@H](COC)[C@@]2(C)C1=C(O)C(=O)C1=C2[C@H](OC(C)=O)C[C@]2(C)C(=O)CC[C@@H]12)CC=C` [SONOLISIB], the Kd in test [1], in [2], in test [3], in test [4], in test [5] and in [6] was > 30 µM (inactive) throughout. Further, the Kd (at Activin receptor type-2B; on DNA topoisomerase 2-beta; in test [7]) was > 30 µM (inactive) each time.
In the case of `COc1cccc2cc(-c3nc([C@H]4CC[C@H](C(=O)O)CC4)n4ncnc(N)c34)[nH]c12` [OSI-027], the Kd was > 30 µM (inactive) in [1]; > 30 µM (inactive) in test [2]; 2.1 µM in test [3]; > 30 µM (inactive) in test [4]; > 30 µM (inactive) in [5]; > 30 µM (inactive) in test [6]. Further, the Kd (at Activin receptor type-2B; at DNA topoisomerase 2-beta; in test [7]) was > 30 µM (inactive) in each case.
Take `O=c1[nH]c([C@@H]2CCCN2)nc2c1oc1ccc(Cl)cc12`: the Kd in test [1], in test [2], in test [3], in test [4], in test [5] and in test [6] was > 30 µM (inactive) throughout. In addition, the Kd (on Activin receptor type-2B; on DNA topoisomerase 2-beta; in test [7]) was > 30 µM (inactive) each time.
Regarding `CN1CCN(c2nc(C3=C(c4c[nH]c5ccccc45)C(=O)NC3=O)c3ccccc3n2)CC1` [SOTRASTAURIN], the Kd in test [1], in [2], in [3], in test [4], in [5] and in test [6] was > 30 µM (inactive) in each case. The Kd (at Activin receptor type-2B; on DNA topoisomerase 2-beta; in [7]) was > 30 µM (inactive) in each case.
Regarding `Cc1cc(C(=O)Nc2cc(Oc3ccc4nc(NC(=O)C5CC5)cn4n3)ccc2C)n(C)n1` [TAK-593], the Kd was > 30 µM (inactive) in [1]; > 30 µM (inactive) in test [2]; > 30 µM (inactive) in [3]; 0.869 µM (active) in test [4]; 2.44 µM (active) in test [5]; > 30 µM (inactive) in [6]. Besides, the Kd (at Activin receptor type-2B; at DNA topoisomerase 2-beta; in test [7]) was > 30 µM (inactive) each time.
Turning to `Cn1cc(-c2[nH]c3cc(NC(=O)[C@H](N)C4CCCCC4)cc4c3c2C=NNC4=O)cn1`, the Kd in [1] is > 30 µM (inactive); in test [2], > 30 µM (inactive); in [3], > 30 µM (inactive); in test [4], 0.002 µM (active); in [5] it was 0.002 µM (active); in test [6], > 30 µM (inactive). The Kd (at Activin receptor type-2B; at DNA topoisomerase 2-beta; in [7]) was > 30 µM (inactive) each time.
For `CCc1cc2c(cc1N1CCC(N3CCOCC3)CC1)C(C)(C)c1[nH]c3cc(C#N)ccc3c1C2=O` [ALECTINIB], the Kd in [1], in test [2], in test [3], in [4], in [5] and in test [6] was > 30 µM (inactive) each time. In addition, the Kd (on Activin receptor type-2B; on DNA topoisomerase 2-beta; in [7]) was > 30 µM (inactive) in each case.
In the case of `C#Cc1cccc(Nc2ncnc3cc4c(cc23)OCCOCCOCCO4)c1` [ICOTINIB], the Kd in test [1], in [2], in test [3], in test [4], in test [5] and in [6] was > 30 µM (inactive) each time. For the same compound, the Kd (at Activin receptor type-2B; on DNA topoisomerase 2-beta; in [7]) was > 30 µM (inactive) throughout.
As to `CC1(COc2ccc3c(c2)ncn3-c2ccc3cccc(N4CCC(N)CC4)c3n2)COC1` [CRENOLANIB], the Kd in [1], in [2], in test [3], in test [4], in test [5] and in [6] was > 30 µM (inactive) in each case. The Kd (at Activin receptor type-2B; at DNA topoisomerase 2-beta; in [7]) was > 30 µM (inactive) each time.
In the case of `COc1cc2ncnc3c2cc1OCCCCCN(C)Cc1ccc(Br)cc1N3` [JNJ-26483327], the Kd in test [1], in test [2], in test [3], in test [4], in test [5] and in test [6] was > 30 µM (inactive) throughout. Further, the Kd (on Activin receptor type-2B; on DNA topoisomerase 2-beta; in test [7]) was > 30 µM (inactive) each time.

(Values after ChEMBL document CHEMBL3991601, “The target landscape of clinical kinase drugs” (Science, 2017).)
